Experimental data taken from publication PMC8142146 (Bioorganic chemistry, 2020).
Read-outs that look alike come from different tables or passages of the source.

Experiments:
PARP1 [1] = target: T1, PARP1 (Homo sapiens, UniProt P09874); assay: in vitro PARP1 enzyme assay; details: for inhibition at 5 µM: read-out: PARP1 inhibition at 5 μM; for fold improvement in PARP1 activity compared to lead 4: vs unsubstituted lead 4 (IC50 = 5.8 μM)
PARP1 [2] = target: T1, PARP1; assay: BPS PARP1 Chemiluminescent Activity Assay Kit; format: biochemical
PARP1 [3] = target: T1, PARP1; details: read-out: PARP1 IC50, literature value; cited from earlier work

T1 sequence (P09874 whole entry): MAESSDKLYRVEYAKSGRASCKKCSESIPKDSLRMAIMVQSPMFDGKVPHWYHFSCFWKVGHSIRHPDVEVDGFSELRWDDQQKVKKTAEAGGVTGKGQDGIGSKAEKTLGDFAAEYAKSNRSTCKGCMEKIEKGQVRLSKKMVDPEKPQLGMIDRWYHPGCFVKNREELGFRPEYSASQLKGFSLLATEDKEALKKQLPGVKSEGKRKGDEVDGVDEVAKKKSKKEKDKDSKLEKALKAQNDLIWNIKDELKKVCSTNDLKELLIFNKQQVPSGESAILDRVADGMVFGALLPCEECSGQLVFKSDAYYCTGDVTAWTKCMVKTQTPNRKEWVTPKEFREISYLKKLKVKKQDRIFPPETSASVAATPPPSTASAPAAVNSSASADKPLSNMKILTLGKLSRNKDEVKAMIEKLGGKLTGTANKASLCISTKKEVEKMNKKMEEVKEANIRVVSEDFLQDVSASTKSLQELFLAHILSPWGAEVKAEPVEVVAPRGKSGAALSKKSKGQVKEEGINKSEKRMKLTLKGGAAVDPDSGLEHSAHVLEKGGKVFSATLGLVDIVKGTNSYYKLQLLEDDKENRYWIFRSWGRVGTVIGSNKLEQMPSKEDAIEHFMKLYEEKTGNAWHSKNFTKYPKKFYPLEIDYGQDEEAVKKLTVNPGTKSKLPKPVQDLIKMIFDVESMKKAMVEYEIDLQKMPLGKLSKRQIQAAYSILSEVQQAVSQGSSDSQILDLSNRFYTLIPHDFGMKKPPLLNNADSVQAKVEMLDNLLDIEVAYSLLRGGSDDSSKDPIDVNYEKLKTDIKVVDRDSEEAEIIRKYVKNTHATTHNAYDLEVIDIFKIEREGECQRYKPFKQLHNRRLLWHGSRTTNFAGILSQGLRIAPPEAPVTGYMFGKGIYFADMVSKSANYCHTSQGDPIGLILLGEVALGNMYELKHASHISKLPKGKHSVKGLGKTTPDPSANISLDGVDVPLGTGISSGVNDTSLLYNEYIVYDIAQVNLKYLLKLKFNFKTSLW

Structure (SMILES) | inhibition at 5 µM (PARP1 [1]) [%] | further results
CS(=O)(=O)OC[C@H]1COc2cccc(C(N)=O)c2O1 [Compound 26b, (R)-(8-Carbamoyl-2,3-dihydrobenzo[b][1,4]dioxin-2-yl)methyl methanesulfonate] | – | fold improvement in PARP1 activity compared to lead 4 (PARP1 [1]): ~ 5 fold
NC(=O)c1cccc2c1O/C(=C\c1ccc(C(=O)O)cc1)C(=O)N2 [Compound 50, (Z)-2-(4-Carboxybenzylidene)-3-oxo-3,4-dihydro-2H-benzo[b][1,4]oxazine-8-carboxamide] | – | IC50 (PARP1 [2]): 420 ± 46 nM
NC(=O)c1cccc2c1OCC(=O)N2 [Compound 45, 3-Oxo-3,4-dihydro-2H-benzo[b][1,4]oxazine-8-carboxamide] | – | fold enhanced PARP1 activity in comparison to 44 (PARP1 [1]; vs 44): 15 fold
NC(=O)c1cccc2c1OCCN2 [Compound 44, 3,4-Dihydro-2H-benzo[b][1,4]oxazine-8-carboxamide] | – | fold less potent than 4 (PARP1) (PARP1 [1]; vs 4): ~ 2 fold
CS(=O)(=O)OC[C@@H]1COc2cccc(C(N)=O)c2O1 [Compound 21b, (S)-(8-Carbamoyl-2,3-dihydrobenzo[b][1,4]dioxin-2-yl)methyl methanesulfonate] | – | fold improved PARP1 activity over 25a (PARP1 [1]; vs hydroxymethyl precursor 25a): ~ 10 fold; fold improvement in PARP1 activity compared to lead 4 (PARP1 [1]): ~ 8 fold
NC(=O)c1cccc2c1OCO2 [Compound 31, Benzo[d][1,3]dioxole-4-carboxamide] | – | IC50 (PARP1 [3]): 5300 nM
NC(=O)c1cccc2c1OCCCO2 [Compound 32, 3,4-Dihydro-2H-benzo[b][1,4]dioxepine-6-carboxamide] | – | inhibition at 2.5 µM (PARP1 [1]; read-out: PARP1 inhibition at 2.5 μM): 15%

More lines, main results first:

inhibition at 5 µM (PARP1 [1]) [%] | Structure (SMILES) | further results
< 20 | NC(=O)c1cccc2c1OC[C@@H](CN1CCN(c3ncccn3)CC1)O2 [Compound 28a, (R)-2-((4-(Pyrimidin-2-yl)piperazin-1-yl)methyl)-2,3-dihydrobenzo[b][1,4]dioxine-5-carboxamide] | –
< 20 | CN1CCN(C[C@H]2COc3c(cccc3C(N)=O)O2)CC1 [Compound 22a, (S)-2-((4-Methylpiperazin-1-yl)methyl)-2,3-dihydrobenzo[b][1,4]dioxine-5-carboxamide] | –
< 20 | NC(=O)c1cccc2c1O[C@@H](CN1CCN(c3ncccn3)CC1)CO2 [Compound 28b, (S)-3-((4-(Pyrimidin-2-yl)piperazin-1-yl)methyl)-2,3-dihydrobenzo[b][1,4]dioxine-5-carboxamide] | –
< 20 | NC(=O)c1cccc2c1OC[C@H](CN1CCN(c3ncccn3)CC1)O2 [Compound 23a, (S)-2-((4-(Pyrimidin-2-yl)piperazin-1-yl)methyl)-2,3-dihydrobenzo[b][1,4]dioxine-5-carboxamide] | –
< 20 | NC(=O)c1cccc2c1O[C@H](CN1CCN(c3ncccn3)CC1)CO2 [Compound 23b, (R)-3-((4-(Pyrimidin-2-yl)piperazin-1-yl)methyl)-2,3-dihydrobenzo[b][1,4]dioxine-5-carboxamide] | –
< 20 | CN1CCN(C[C@@H]2COc3c(cccc3C(N)=O)O2)CC1 [Compound 27a, (R)-2-((4-Methylpiperazin-1-yl)methyl)-2,3-dihydrobenzo[b][1,4]dioxine-5-carboxamide] | –
< 20 | CN1CCN(C[C@H]2COc3cccc(C(N)=O)c3O2)CC1 [Compound 27b, (S)-3-((4-Methylpiperazin-1-yl)methyl)-2,3-dihydrobenzo[b][1,4]dioxine-5-carboxamide] | –
< 20 | CN1CCN(C[C@@H]2COc3cccc(C(N)=O)c3O2)CC1 [Compound 22b, (R)-3-((4-Methylpiperazin-1-yl)methyl)-2,3-dihydrobenzo[b][1,4]dioxine-5-carboxamide] | –
